Data published in US12331040B2 (Karyopharm Therapeutics Inc., priority 2013, dated 2025).
pIC50: −log10 of the molar value. Read-outs that look alike come from different tables or passages of the source.

How the values were obtained:
Assay in all cases: MTT cell proliferation assay
Assay type in all cases: cell-based
3T3 cells = settings: Mus musculus, NIH3T3, approximately 64-72 hours incubation
In short: (§1)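 Cytotoxicity was measured by MTT: OD490 of the solubilized formazan after roughly 4 h with MTT reagent, reported as mean percent inhibition relative to the negative control. Test compounds covered eight concentrations between 1 nM and 30 μM, added to 5,000–10,000 cells per well that had attached overnight.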

MS751 cells = settings: Homo sapiens, MS751, MS751 cells, approximately 64-72 hours incubation
In short: as §1

Z138 cells = settings: Homo sapiens, Z-138, Z138 cells, approximately 64-72 hours incubation
In short: as §1

[1] = read-out: MTT Assay IC50 MS-751
[2] = read-out: MTT Assay IC50, MS-751
[3] = read-out: MTT Assay IC50, Z-138

Structure (SMILES)	pIC50 (3T3 cells; read-out: MTT Assay IC50 3T3)	pIC50 (MS751 cells; [1])	pIC50 (Z138 cells; read-out: MTT Assay IC50 Z-138)	pIC50 (3T3 cells; read-out: MTT Assay IC50, 3T3)	pIC50 (MS751 cells; [2])	pIC50 (Z138 cells; [3])
Nc1ccc(/C=C/C(=O)NCc2cc3cc(-c4ccc(C(=O)N5CC[C@H](F)C5)cn4)cc(C(F)(F)F)c3o2)cn1 [Compound 570, (S,E)-3-(6-aminopyridin-3-yl)-N-((5-(5-(3-fluoropyrrolidine-1-carbonyl)pyridin-2-yl)-7-(trifluoromethyl)benzofuran-2-yl)methyl)acrylamide]	< 5.00	5.30 to 7.00	> 7.00			
CC(C)(NC(=O)/C=C/c1ccc(N)nc1)c1cc2cc(-c3ccc(C(=O)N4CCOCC4)cc3)cc(Cl)c2o1 [Compound 512, (E)-3-(6-aminopyridin-3-yl)-N-(2-(7-chloro-5-(4-(morpholine-4-carbonyl)phenyl)benzofuran-2-yl)propan-2-yl)acrylamide]	< 5.00	< 5.00	< 5.00			
Nc1ccc(/C=C/C(=O)NCc2cc3cc(-c4ccc(S(=O)(=O)N5CC(F)C5)cc4)cc(Cl)c3o2)cn1 [Compound 533, (E)-3-(6-aminopyridin-3-yl)-N-((7-chloro-5-(4-(3-fluoroazetidin-1-ylsulfonyl)phenyl)benzofuran-2-yl)methyl)acrylamide]	< 5.00	5.30 to 7.00	5.30 to 7.00			
Nc1ccc(/C=C/C(=O)NCc2cc3cc(-c4ccc(C(=O)N5CC(F)(F)C5)cc4)cc(C(F)(F)F)c3o2)cn1 [Compound 520, (E)-3-(6-aminopyridin-3-yl)-N-((5-(4-(3,3-difluoroazetidine-1-carbonyl)phenyl)-7-(trifluoromethyl)benzofuran-2-yl)methyl)acrylamide]	< 5.00	5.30 to 7.00	5.30 to 7.00			
CC1(O)CCN(C(=O)c2ccc(-c3cc(Cl)c4oc(CNC(=O)/C=C/c5ccc(N)nc5)cc4c3)cc2)CC1 [Compound 602, (E)-3-(6-aminopyridin-3-yl)-N-((7-chloro-5-(4-(4-hydroxy-4-methylpiperidine-1-carbonyl)phenyl)benzofuran-2-yl)methyl)acrylamide]	< 5.00	5.30 to 7.00	5.30 to 7.00			
Nc1ccc(/C=C/C(=O)NCc2cc3cc(-c4ccc(C(=O)N5CC6CC(C5)O6)cn4)cc(C(F)(F)F)c3o2)cn1 [Compound 626, (E)-N-((5-(5-(6-oxa-3-azabicyclo[3.1.1]heptane-3-carbonyl)pyridin-2-yl)-7-(trifluoromethyl)benzofuran-2-yl)methyl)-3-(6-aminopyridin-3-yl)acrylamide]	< 5.00	5.30 to 7.00	5.30 to 7.00			
O=C(/C=C/c1cccnc1)NCc1cc2cc(-c3ccc(C(=O)N4CCC(F)(F)CC4)cn3)cc(-c3cc4ccccc4o3)c2o1 [Compound 721, (E)-N-((5′-(5-(4,4-difluoropiperidine-1-carbonyl)pyridin-2-yl)-[2,7′-bibenzofuran]-2′-yl)methyl)-3-(pyridin-3-yl)acrylamide]				> 7.00	> 7.00	> 7.00
Cc1noc(-c2ccc(F)cc2)c1-c1cc(C(F)(F)F)c2oc(CNC(=O)/C=C/c3ccc(N)nc3)cc2c1 [Compound 648, (E)-3-(6-aminopyridin-3-yl)-N-((5-(5-(4-fluorophenyl)-3-methylisoxazol-4-yl)-7-(trifluoromethyl)benzofuran-2-yl)methyl)acrylamide]	< 5.00	5.30 to 7.00	5.30 to 7.00			
CN(C)c1ccc(/C=C/C(=O)NCc2cc3cc(-c4ccc(C(=O)N5CCOCC5)cc4)cc(Cl)c3o2)cn1 [Compound 551, (E)-N-((7-Chloro-5-(4-(morpholine-4-carbonyl)phenyl)benzofuran-2-yl)methyl)-3-(6-(dimethylamino)pyridin-3-yl)acrylamide]	< 5.00	< 5.00	< 5.00			
Nc1ccc(/C=C/C(=O)NCc2cc3cc(-c4ncc(C(=O)N5CCC(F)(F)C5)cn4)cc(C(F)(F)F)c3o2)cn1 [Compound 653, (E)-3-(6-aminopyridin-3-yl)-N-((5-(5-(3,3-difluoropyrrolidine-1-carbonyl)pyrimidin-2-yl)-7-(trifluoromethyl)benzofuran-2-yl)methyl)acrylamide]	< 5.00	5.30 to 7.00	5.30 to 7.00			
Nc1ccc(/C=C/C(=O)NCc2cc3cc(-c4ccc(S(=O)(=O)N5CC[C@@H](F)C5)cc4)cc(Cl)c3o2)cn1 [Compound 527, (R,E)-3-(6-aminopyridin-3-yl)-N-((7-chloro-5-(4-(3-fluoropyrrolidin-1-ylsulfonyl)phenyl)benzofuran-2-yl)methyl)acrylamide]	< 5.00	5.30 to 7.00	5.30 to 7.00			
CN1CCN(C(=O)c2ccc(-c3cc(C(F)(F)F)c4oc(CNC(=O)/C=C/c5ccc(N)nc5)cc4c3)cc2)CC1 [Compound 561, (E)-3-(6-aminopyridin-3-yl)-N-((5-(4-(4-methylpiperazine-1-carbonyl)phenyl)-7-(trifluoromethyl)benzofuran-2-yl)methyl)acrylamide]	5.00 to 5.30	> 7.00	> 7.00			
CC1(C)CN(C(=O)c2ccc(-c3cc(C(F)(F)F)c4oc(CNC(=O)/C=C/c5ccc(N)nc5)cc4c3)cc2)CCN1 [Compound 572, (E)-3-(6-aminopyridin-3-yl)-N-((5-(4-(3,3-dimethylpiperazine-1-carbonyl)phenyl)-7-(trifluoromethyl)benzofuran-2-yl)methyl)acrylamide]	5.30 to 7.00	> 7.00	> 7.00			
Nc1ccc(/C=C/C(=O)NCc2cc3cc(-c4ccc(CC(=O)N5CCOCC5)cc4)cc(Cl)c3o2)cn1 [Compound 553, (E)-3-(6-Aminopyridin-3-yl)-N-((7-chloro-5-(4-(2-morpholino-2-oxoethyl)phenyl)benzofuran-2-yl)methyl)acrylamide]	< 5.00	5.30 to 7.00	5.30 to 7.00			
Nc1ccc(/C=C/C(=O)NCc2cc3cc(-c4ccc(C(=O)NC5(C(F)(F)F)CC5)cn4)cc(C(F)(F)F)c3o2)cn1 [Compound 619, (E)-6-(2-((3-(6-aminopyridin-3-yl)acrylamido)methyl)-7-(trifluoromethyl)benzofuran-5-yl)-N-(1-(trifluoromethyl)cyclopropyl)nicotinamide]	< 5.00	5.30 to 7.00	5.30 to 7.00			
Nc1ccc(/C=C/C(=O)NCc2cc3cc(-c4ccc(C(=O)N5CCNCC5)cn4)cc(C(F)(F)F)c3o2)cn1 [Compound 577, (E)-3-(6-aminopyridin-3-yl)-N-((5-(5-(piperazine-1-carbonyl)pyridin-2-yl)-7-(trifluoromethyl)benzofuran-2-yl)methyl)acrylamide]	< 5.00	> 7.00	> 7.00			
Nc1ccc(/C=C/C(=O)NCc2cc3cc(-c4ccc(C(=O)N5CC[C@H](F)C5)cc4)cc(Cl)c3o2)cn1 [Compound 528, (S,E)-3-(6-aminopyridin-3-yl)-N-((7-chloro-5-(4-(3-fluoropyrrolidine-1-carbonyl)phenyl)benzofuran-2-yl)methyl)acrylamide]	< 5.00	< 5.00	< 5.00			
Nc1ccc(/C=C/C(=O)NCc2cc3cc(-c4ccc(C(=O)N5CC(F)C5)cc4)cc(C(F)(F)F)c3o2)cn1 [Compound 524, (E)-3-(6-aminopyridin-3-yl)-N-((5-(4-(3-fluoroazetidine-1-carbonyl)phenyl)-7-(trifluoromethyl)benzofuran-2-yl)methyl)acrylamide]	< 5.00	5.30 to 7.00	5.30 to 7.00			
Nc1ccc(/C=C/C(=O)NCc2cc3cc(-c4cccc(OC(=O)N5CCOCC5)c4)cc(C(F)(F)F)c3o2)cn1 [Compound 558, (E)-3-(2-((3-(6-aminopyridin-3-yl)acrylamido)methyl)-7-(trifluoromethyl)benzofuran-5-yl)phenyl morpholine-4-carboxylate]	< 5.00	< 5.00	< 5.00			
Nc1ccc(/C=C/C(=O)NCc2cc3cc(-c4ccc(C(=O)N5CCC(F)(F)CC5)cc4)cc(-c4ccc(F)c(F)c4)c3o2)cn1 [Compound 737, (E)-3-(6-aminopyridin-3-yl)-N-((7-(3,4-difluorophenyl)-5-(4-(4,4-difluoropiperidine-1-carbonyl)phenyl)benzofuran-2-yl)methyl)acrylamide]				5.30 to 7.00	> 7.00	> 7.00
Nc1ccc(/C=C/C(=O)NCc2cc3cc(-c4ccc(C(=O)N5CC[C@@H](F)C5)cc4)cc(Cl)c3o2)cn1 [Compound 523, (R,E)-3-(6-aminopyridin-3-yl)-N-((7-chloro-5-(4-(3-fluoropyrrolidine-1-carbonyl)phenyl)benzofuran-2-yl)methyl)acrylamide]	< 5.00	< 5.00	< 5.00			
CC1(C)CNCCN1C(=O)c1ccc(-c2cc(C(F)(F)F)c3oc(CNC(=O)/C=C/c4ccc(N)nc4)cc3c2)cc1 [Compound 575, (E)-3-(6-aminopyridin-3-yl)-N-((5-(4-(2,2-dimethylpiperazine-1-carbonyl)phenyl)-7-(trifluoromethyl)benzofuran-2-yl)methyl)acrylamide]	< 5.00	5.30 to 7.00	5.30 to 7.00			
Nc1ccc(/C=C/C(=O)NCc2cc3cc(-c4ccc(C(=O)N5CCOCC5)nn4)cc(Cl)c3o2)cn1 [Compound 552, (E)-3-(6-aminopyridin-3-yl)-N-((7-chloro-5-(6-(morpholine-4-carbonyl)pyridazin-3-yl)benzofuran-2-yl)methyl)acrylamide]	< 5.00	5.30 to 7.00	5.30 to 7.00			
